What was measured:
[1] = in vitro; format: in vitro ADME; settings: human plasma containing 5 mM MgCl2, 37° C., LC-MS/MS; read-out: T1/2 (h) Plasma (converted)
Protocol: (§1) To 1 mL of human plasma containing 5 mM MgCl2 was added 2 μL of a solution of 50 mM compound to be tested in DMSO, and the mixture was incubated at 37° C. 100 μL of sample was taken at different time points, into which 200 μL of methanol was added, and the mixture was centrifuged at 14000 rpm at 4° C. for 30 min. 100 μL of supernatant was taken, into which 100 μL of methanol was added, and the mixture was frozen at −20° C. for later use.
(§2) The content of the compound to be tested in plasma or liver microsome was determined by LC-MS/MS, and the half-life was calculated. Instruments: Prominence 20 A liquid chromatograph from Shimadzu, API 4000 Q-TRAP mass spectrometer from Applied Biosystems; mass spectrometry conditions: ESI negative ion detection; chromatographic column: Diamonsil C18 (100×4.6 mm, 5 μm) chromatographic column; column temperature: 40° C.; flow rate: 0.5 mL/min. Mobile phase A: methanol; mobile phase B: 5% aqueous methanol solution (containing 2 mM ammonium formate); flow rate: 0.5 mL/min; gradient elution as shown in the following table: […]

[2] = Evaluation of metabolic stability in human liver microsome (human liver S9 components); format: in vitro ADME; settings: liver S9 components (headed liver microsome); human liver S9 components 4 mg/mL, pH 7.4, 37° C., LC-MS/MS; read-out: T1/2 (h) Liver microsome (converted)
Protocol: as §1, with “buffer” for “human plasma”, “MgCl2 and 50 mM K2HPO4 (pH 7.4)” for “MgCl2”, “DMSO, then human liver S9 components were added to reach 4 mg/mL,” for “DMSO,”, “300” for “200”, “rpm for 30 min” for “rpm”, “C.” for “C. for 30 min.”
as §2

[3] = Pharmacokinetic evaluation in beagle dogs; format: in vivo; settings: for Cmax: male, dog, po, plasma, intragastric, II-1 5 mg/kg, II-6 5.13 mg/kg, I-5-B 5.27 mg/kg, read-out: Cmax(ng/ml) Prodrug prototype
Protocol: Male beagle dogs (7-8 months old, weighing 7-10 kg) were randomly divided into groups (2 beagle dogs per group) and weighed. The beagle dogs were fasted for 12 h before administration. The sample to be tested at a certain concentration was ground and suspended in 0.5% sodium carboxymethylcellulose solution, and II-1 (5 mg/kg), II-6 (5.13 mg/kg) or I-5-B (5.27 mg/kg) was administered intragastrically to the beagle dogs. Before administration and 0.5 h, 1 h, 2 h, 4 h, 6 h, 8 h, 10 h and 24 h after administration, 0.5 mL of blood was collected from the cephalic vein of forelimb separately, anticoagulated with sodium heparin, centrifuged to separate out the plasma, which was stored at −80° C. for determination.
50 μL of drug-containing plasma was taken, into which 50 μL of methanol and 100 μL of internal-standard acetaminophen methanol solution were added, and the mixture was vortexed for 1 min and centrifuged at 12000 rpm for 10 min at 4° C. The supernatant was taken and placed in an internal insert tube for quantitative analysis by LC-MS/MS (the method was the same as that in Example 7).

[4] = tested on: hepatitis B; settings: ducks; disclosed in CN103804417A; cited from earlier work

| SMILES | half-life at 100 µM [1] [h] | half-life at 100 µM [2] [h] | prodrug prototype present in plasma (in words) [3] | transformation into the active form (in words) [3] | Cmax [3] [ng/mL] | antiviral effect on hepatitis B in vivo (in words) [4] | plasma concentration of the prodrug prototype (in words, versus I-5-B) ([3]; intragastric administration) |
| --- | --- | --- | --- | --- | --- | --- | --- |
| C=C1[C@H](CO[P@@](=O)(N[C@@H](C)C(=O)OC(C)C)Oc2ccccc2)[C@@H](O)C[C@@H]1n1cnc2c(=O)[nH]c(N)nc21 [I-5-B, 2-amino-1,9-dihydro-9-[(1S,3R,4S)-4-hydroxy-3-((S)-((S)-1-isopropoxycarbonylethylamino-phenoxy-phosphoryl)-oxymethyl)-2-methylenecyclopentyl]-6H-purin-6-one, reference compound] | > 24 | 0.4 | high concentration | can not be completely transformed into the active form | 864 | good antiviral effect | – |
| C=C1[C@H](CO[P@@](=O)(N[C@@H](C)C(=O)OC)Oc2ccccc2)[C@@H](O)C[C@@H]1n1cnc2c(=O)[nH]c(N)nc21 [II-1, 2-amino-1,9-dihydro-9-[(1S,3R,4S)-4-hydroxy-3-((S)-((S)-1-methoxycarbonylethylamino-phenoxy-phosphoryl)-oxymethyl)-2-methylenecyclopentyl]-6H-purin-6-one] | 15.3 | 0.27 | – | – | 331 | – | significantly lower than that of the I-5-B |
| C=C1[C@H](CO[P@@](=O)(N[C@@H](C)C(=O)OC)Oc2ccc(F)cc2)[C@@H](O)C[C@@H]1n1cnc2c(=O)[nH]c(N)nc21 [II-2, 2-amino-1,9-dihydro-9-[(1S,3R,4S)-4-hydroxy-3-((S)-((S)-1-methoxycarbonylethylamino-(4-fluoro-phenyl)oxy-phosphoryl)-oxymethyl)-2-methylenecyclopentyl]-6H-purin-6-one] | 10.6 | 0.13 | – | – | – | – | – |
| C=C1[C@H](CO[P@@](=O)(N[C@@H](C)C(=O)OC)Oc2ccc(Cl)cc2)[C@@H](O)C[C@@H]1n1cnc2c(=O)[nH]c(N)nc21 [II-3, 2-amino-1,9-dihydro-9-[(1S,3R,4S)-4-hydroxy-3-((S)-((S)-1-methoxycarbonylethylamino-(4-chloro-phenyl)oxy-phosphoryl)-oxymethyl)-2-methylenecyclopentyl]-6H-purin-6-one] | 7.5 | 0.06 | – | – | – | – | – |
| C=C1[C@H](CO[P@@](=O)(N[C@@H](C)C(=O)OC)Oc2ccc(Br)cc2)[C@@H](O)C[C@@H]1n1cnc2c(=O)[nH]c(N)nc21 [II-4, 2-amino-1,9-dihydro-9-[(1S,3R,4S)-4-hydroxy-3-((S)-((S)-1-methoxycarbonylethylamino-(4-bromo-phenyl)oxy-phosphoryl)-oxymethyl)-2-methylenecyclopentyl]-6H-purin-6-one] | 6.2 | 0.06 | – | – | – | – | – |
| C=C1[C@H](CO[P@@](=O)(N[C@@H](C)C(=O)OC)Oc2ccc(OC)cc2)[C@@H](O)C[C@@H]1n1cnc2c(=O)[nH]c(N)nc21 [II-5, 2-amino-1,9-dihydro-9-[(1S,3R,4S)-4-hydroxy-3-((S)-((S)-1-methoxycarbonylethylamino-(4-methoxy-phenyl)oxy-phosphoryl)-oxymethyl)-2-methylenecyclopentyl]-6H-purin-6-one] | 4.9 | 0.03 | – | – | – | – | – |
| C=C1[C@H](CO[P@@](=O)(N[C@@H](C)C(=O)OC)Oc2ccc(C)cc2)[C@@H](O)C[C@@H]1n1cnc2c(=O)[nH]c(N)nc21 [II-6, 2-amino-1,9-dihydro-9-[(1S,3R,4S)-4-hydroxy-3-((S)-((S)-1-methoxycarbonylethylamino-(4-methyl-phenyl)oxy-phosphoryl)-oxymethyl)-2-methylenecyclopentyl]-6H-purin-6-one] | 10.8 | 0.19 | – | – | 633 | – | – |

Source: patent US12590097B2 (priority 2020, dated 2026)
